In patent US10912780B2, “Heterocyclic compounds useful as anti-bacterial agents and method for production thereof” (Bugworks Research, Inc., priority 2017, dated 2021):
In brackets after ≈: the same amount, converted by molar mass. Several values for one entry are separate records, joined by “and”; a condition that tells them apart may be missing. Equal values may be shown once.

Tests used:
[1] = target: E. coli topoisomerase IV (Escherichia coli, UniProt P0AFI2+P20083); test: biochemical; conditions: decatenation assay; read-out: E. coli Topo IV IC50
E. coli topoisomerase IV, sequence (P20083 whole entry): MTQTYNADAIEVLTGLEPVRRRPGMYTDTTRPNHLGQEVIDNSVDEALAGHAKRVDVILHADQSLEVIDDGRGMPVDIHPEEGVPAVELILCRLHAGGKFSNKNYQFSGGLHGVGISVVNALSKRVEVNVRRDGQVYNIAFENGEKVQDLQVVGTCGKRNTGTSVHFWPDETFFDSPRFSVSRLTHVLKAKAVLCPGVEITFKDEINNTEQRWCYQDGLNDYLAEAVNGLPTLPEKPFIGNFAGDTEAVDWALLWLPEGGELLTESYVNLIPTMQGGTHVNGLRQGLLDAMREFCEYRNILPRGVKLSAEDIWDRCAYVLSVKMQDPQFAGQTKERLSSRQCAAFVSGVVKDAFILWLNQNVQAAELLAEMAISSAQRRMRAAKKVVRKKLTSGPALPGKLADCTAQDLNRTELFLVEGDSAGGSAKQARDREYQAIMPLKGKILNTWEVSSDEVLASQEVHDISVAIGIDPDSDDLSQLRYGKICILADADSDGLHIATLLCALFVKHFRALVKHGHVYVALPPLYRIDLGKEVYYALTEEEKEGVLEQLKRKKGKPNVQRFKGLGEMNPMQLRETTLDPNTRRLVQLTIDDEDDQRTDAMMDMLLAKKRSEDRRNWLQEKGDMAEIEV
E. coli topoisomerase IV, sequence (P0AFI2 whole entry): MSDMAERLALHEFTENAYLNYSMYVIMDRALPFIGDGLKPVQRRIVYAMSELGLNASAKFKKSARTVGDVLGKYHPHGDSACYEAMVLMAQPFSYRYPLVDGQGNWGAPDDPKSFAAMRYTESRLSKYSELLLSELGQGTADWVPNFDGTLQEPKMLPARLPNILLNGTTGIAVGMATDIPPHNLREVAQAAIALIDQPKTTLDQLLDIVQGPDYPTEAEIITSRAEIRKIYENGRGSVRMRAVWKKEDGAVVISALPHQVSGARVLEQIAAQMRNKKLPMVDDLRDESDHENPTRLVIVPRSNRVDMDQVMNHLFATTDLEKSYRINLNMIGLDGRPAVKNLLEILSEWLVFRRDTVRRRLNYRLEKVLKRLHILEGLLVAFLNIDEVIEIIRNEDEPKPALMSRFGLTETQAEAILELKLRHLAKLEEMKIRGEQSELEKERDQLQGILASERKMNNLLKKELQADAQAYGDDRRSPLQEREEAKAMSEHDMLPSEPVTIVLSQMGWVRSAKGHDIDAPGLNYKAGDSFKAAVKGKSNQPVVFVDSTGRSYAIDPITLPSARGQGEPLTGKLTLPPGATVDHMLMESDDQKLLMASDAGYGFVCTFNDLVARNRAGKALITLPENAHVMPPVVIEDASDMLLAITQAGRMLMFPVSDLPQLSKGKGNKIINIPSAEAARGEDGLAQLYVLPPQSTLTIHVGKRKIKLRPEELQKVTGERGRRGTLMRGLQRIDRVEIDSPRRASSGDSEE

[2] = test system: E. coli clinical strains; test: Antibacterial susceptibility studies (MIC50 and MIC90) with clinical strains, CLSI guidelines; assay type: cell-based
[3] = target: T1, human ether a go-go related gene (hERG) K+ channel (Homo sapiens, UniProt Q12809); test: hERG inhibition assay, QPatch HTX automated electrophysiology; assay type: cell-based; conditions: CHO cell line stably expressing hERG, whole-cell patch clamp, maximum test concentration 300 μM
T1 construct: Chinese Hamster Ovary cell line stably expressing the full-length hERG potassium channel; expressed in transfected cells
T1 sequence (Q12809 whole entry): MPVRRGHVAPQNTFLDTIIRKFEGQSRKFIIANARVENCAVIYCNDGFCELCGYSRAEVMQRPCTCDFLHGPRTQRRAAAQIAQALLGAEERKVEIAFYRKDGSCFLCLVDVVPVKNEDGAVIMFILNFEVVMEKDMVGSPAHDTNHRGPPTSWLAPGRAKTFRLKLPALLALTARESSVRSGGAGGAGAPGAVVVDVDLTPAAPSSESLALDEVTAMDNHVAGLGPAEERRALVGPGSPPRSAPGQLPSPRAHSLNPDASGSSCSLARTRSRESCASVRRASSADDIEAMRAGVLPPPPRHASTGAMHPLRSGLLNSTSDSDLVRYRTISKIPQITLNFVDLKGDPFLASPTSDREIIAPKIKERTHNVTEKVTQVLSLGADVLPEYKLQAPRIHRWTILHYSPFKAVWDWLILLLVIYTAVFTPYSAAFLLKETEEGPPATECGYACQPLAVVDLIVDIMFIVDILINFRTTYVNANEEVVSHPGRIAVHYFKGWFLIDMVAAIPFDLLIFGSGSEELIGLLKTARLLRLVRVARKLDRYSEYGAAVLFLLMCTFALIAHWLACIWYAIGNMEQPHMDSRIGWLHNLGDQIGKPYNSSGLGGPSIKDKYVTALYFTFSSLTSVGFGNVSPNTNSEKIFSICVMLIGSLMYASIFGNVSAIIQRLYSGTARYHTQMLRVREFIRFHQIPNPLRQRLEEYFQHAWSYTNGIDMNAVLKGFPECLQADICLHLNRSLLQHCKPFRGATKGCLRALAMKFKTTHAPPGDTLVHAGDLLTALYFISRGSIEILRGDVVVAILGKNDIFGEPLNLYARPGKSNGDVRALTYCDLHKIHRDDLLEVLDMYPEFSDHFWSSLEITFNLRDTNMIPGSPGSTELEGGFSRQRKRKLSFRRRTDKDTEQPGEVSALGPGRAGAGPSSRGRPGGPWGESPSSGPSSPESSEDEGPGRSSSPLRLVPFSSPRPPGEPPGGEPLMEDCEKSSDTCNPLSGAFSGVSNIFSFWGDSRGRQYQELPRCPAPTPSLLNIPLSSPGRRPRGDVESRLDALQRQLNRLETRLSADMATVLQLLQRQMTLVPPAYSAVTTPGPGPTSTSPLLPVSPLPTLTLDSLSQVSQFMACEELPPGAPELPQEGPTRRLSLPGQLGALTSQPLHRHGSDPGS
Method: The compounds were tested for inhibition of the human ether a go-go related gene (hERG) K+ channel using QPatch HTX automated electrophysiology.
Compounds were solubilised to 100 mM in DMSO before dilution in HBPS to 300 μM.
Electrophysiological recordings were made from a Chinese Hamster Ovary cell line stably expressing the full-length hERG potassium channel. Single cell ionic currents were measured in whole-cell patch clamp configuration at room temperature (21-23° C.) using the QPatch HTX platform (Sophion). Intracellular solution contained (mM): 120 KF, 20 KCl, 10 EGTA, 10 HEPES and was buffered to pH 7.3. […] Cells were clamped at a holding potential of −80 mV. […] This sweep was repeated 10 times at 10 s intervals. hERG currents were measured from the tail step and referenced to the holding current. Compounds were then incubated for 2 minutes prior to a second measurement of ion channel current using an identical pulse train.

[4] = IV formulation solubility; assay type: physicochemical; conditions: 10% L-ascorbic acid in MilliQ water (IV formulation), aqueous with cosolvent or surfactant or cyclodextrin, IV formulation: 10% L-Ascorbic acid, 1N NaOH for pH adjustment, read-out: Solubility in 10% L-ascorbic acid in fresh MilliQ water(v/v), Final
Method: Procedure: Weighed appropriate amount of the Example 15 to be tested and dissolved in 1 ml of the 10% ascorbic acid solution. (Vortex for a few seconds if the compound doesn't dissolve instantly). Sonicated the compound solution at room temperature for 5 minutes using a bath sonicator to obtain a visually clear solution. […]

[5] = test system: P. aeruginosa [ATCC27853]; test: Neutropenic lung infection model in rat; assay type: in vivo; conditions: for MEAN ± SD (Log 10 CFU/g Lung) / Mean Log 10CFU/g lung reduction (wrt 4 h PI control 5.78 Log10CFU/g lung) / Log 10 CFU/g Lung: neutropenic rat, 24 h post infection; for Log 10 CFU/g Lung: individual animals
Method: The purpose of this study was to evaluate the efficacy of example 15 against P. aeruginosa [ATCC27853], following single dose intravenous infusion doses of 10, 30 and 100 mg/kg in a neutropenic lung infection model in rats
Prior to the start of the infection process, all animals were divided into different groups. All grouped cages of animals were carried to a procedure room, close to a biological safety cabinet. All infections were conducted in a biological safety cabinet, with appropriate personnel protection. Animals were placed into an induction chamber and anaesthesia was induced by exposing the animals to 3-5% Isoflurane in an oxygen flow set at approximately (˜) 1 liter per minute (LPM). Once the animals were in a sufficiently deep plane of anaesthesia as monitored by pedal reflex, they were removed and infected (2). […] A gentle mixing of inoculum between two animals was followed for uniform distribution.
The IV formulation vehicle used for example 15 was 10% of L-ascorbic acid in fresh MilliQ water (w/v) with pH adjusted to ˜4.0 with 1N Sodium hydroxide solution (w/v), and the dose volume was 10 mL/kg. Meropenem was formulated in saline. […] The dose levels of the test Example 15 were 10, 30 and 100 mg/kg.
All the animals in groups were sacrificed at 24 h post infection, as specified in experimental design, by an overdose of CO2 in an appropriate exposure chamber. The group 1 animals were sacrificed at 4 hrs post infection. The euthanized animals were dipped into 70% ethanol for surface decontamination. Entire Lung was aseptically isolated, weighed and placed into 1 mL of sterile CSDB broth, and homogenized (Omni Tip (220 V hand held)). Serial ten-fold dilutions of the lungs homogenates were prepared in sterile CSD broth and 0.05 mL of four dilutions for each tissue was plated onto CSDA agar plates. Bacterial colonies were enumerated following overnight incubation at 37° C. Bacterial densities were estimated as Log10 CFU/g lung. The Mean±SD Log10 CFU/g lung was estimated in each group. Significant differences between group means and control were analyzed by one way ANOVA, followed by a Dunnett's multiple comparison test, using Graphpad Prism at 95% confidence levels.

[6] = test system: P. aeruginosa clinical strains; test: Antibacterial susceptibility studies (MIC50 and MIC90) with clinical strains, CLSI guidelines; assay type: cell-based
[7] = Stability of IV formulation at room temperature; assay type: physicochemical; conditions: IV formulation in 10% L-ascorbic acid, pH~4
Method: Procedure: Weighed appropriate amount of the Example 15 to be tested and dissolved in 1 ml of the 10% ascorbic acid solution. (Vortex for a few seconds if the compound doesn't dissolve instantly). Sonicated the compound solution at room temperature for 5 minutes using a bath sonicator to obtain a visually clear solution. The above prepared solution was pH adjusted to pH˜4 with 1N NaOH solution (w/v) with sonication (final Formulation pH˜4).

[8] = test system: A. baumannii clinical strains; test: Antibacterial susceptibility studies (MIC50 and MIC90) with clinical strains, CLSI guidelines; assay type: cell-based

Cn1c(=O)ccc2ccc(F)c(CCNC[C@H]3CN(c4cnc5c(n4)NC(=O)CO5)C(=O)O3)c21 [Example 15, (S)-6-(5-(((2-(7-fluoro-1-methyl-2-oxo-1,2-dihydroquinolin-8-yl)ethyl)amino)methyl)-2-oxooxazolidin-3-yl)-2H-pyrazino[2,3-b][1,4]oxazin-3(4H)-one]
IC50 [1]: 0.01 µM
MIC ATCC25922 ([2]; E. coli reference strain ATCC25922, no unit in this line (MIC50/MIC90 lines: μg/ml)): 0.06 µg/mL (≈ 0.128 µM)
MIC50 ([2]; Escherichia coli): 0.06 µg/mL (≈ 0.128 µM)
MIC90 ([2]; Escherichia coli): 0.25 µg/mL (≈ 0.534 µM)
Minimum ([2]; lowest MIC among E. coli clinical strains (201 strains; Example 15: 176), no unit in this line): 0.03
IC50 [3]: 131 µM
solubility at 5 min [4]: 25 mg/mL (≈ 53400 µM)
MEAN ± SD (Log 10 CFU/g Lung) ([5]; 10 mg/kg, i.v. 1 h infusion): 6.63 ± 0.15 Log 10 CFU/g Lung
Mean Log 10CFU/g lung reduction (wrt 4 h PI control 5.78 Log10CFU/g lung) ([5]; 10 mg/kg, i.v. 1 h infusion): −0.85 Log10CFU/g lung
MEAN ± SD (Log 10 CFU/g Lung) ([5]; 30 mg/kg, i.v., 1 h infusion): 4.74 ± 0.08 Log 10 CFU/g Lung
Mean Log 10CFU/g lung reduction (wrt 4 h PI control 5.78 Log10CFU/g lung) ([5]; 30 mg/kg, i.v., 1 h infusion): 1.04 Log10CFU/g lung
MEAN ± SD (Log 10 CFU/g Lung) ([5]; 100 mg/kg, i.v., 1 h infusion): 4.76 ± 0.2 Log 10 CFU/g Lung
Mean Log 10CFU/g lung reduction (wrt 4 h PI control 5.78 Log10CFU/g lung) ([5]; 100 mg/kg, i.v., 1 h infusion): 1.02 Log10CFU/g lung
Log 10 CFU/g Lung ([5]; 10 mg/g, i.v. 1 h infusion): 6.68 Log 10 CFU/g Lung and 6.75 Log 10 CFU/g Lung and 6.47 Log 10 CFU/g Lung
Log 10 CFU/g Lung ([5]; 30 mg/kg, i.v., 1 h infusion): 4.79 Log 10 CFU/g Lung and 4.65 Log 10 CFU/g Lung and 4.78 Log 10 CFU/g Lung
Log 10 CFU/g Lung ([5]; 100 mg/kg, i.v., 1 h infusion): 4.84 Log 10 CFU/g Lung and 4.53 Log 10 CFU/g Lung and 4.90 Log 10 CFU/g Lung
efficacy compared to the early infection control (in words) ([5]; rat lung model, 10 mg/kg): bacteriostatic
efficacy with respect to early infection control (in words) ([5]; rat lung model, 30 mg/kg and 100 mg/kg): significant efficacy
efficacy versus standard drug (in words) ([5]; rat lung model, similar dose (30 mg/kg)): comparable to standard drug meropenem
MIC ATCC27853 ([6]; P. aeruginosa reference strain ATCC27853, no unit in this line): 0.25 µg/mL (≈ 0.534 µM)
MIC50 ([6]; Pseudomonas aeruginosa): 0.5 µg/mL (≈ 1.07 µM)
MIC90 ([6]; Pseudomonas aeruginosa): 1 µg/mL (≈ 2.13 µM)
Minimum ([6]; lowest MIC among P. aeruginosa clinical strains (215 strains; Example 15: 176), no unit in this line): 0.03
IV formulation stable at room temperature [7]: more than 24 hours
MIC ATCC19606 ([8]; A. baumannii reference strain ATCC19606, no unit in this line): 0.06 µg/mL (≈ 0.128 µM)
MIC50 ([8]; Acinetobacter baumannii): 0.06 µg/mL (≈ 0.128 µM)
MIC90 ([8]; Acinetobacter baumannii): 0.125 µg/mL (≈ 0.267 µM)
Minimum ([8]; lowest MIC among A. baumannii clinical strains (169 strains; Example 15: 132), no unit in this line): 0.03
